Assay results taken from US11998539B2, “Substituted aminoquinolones as DGKalpha inhibitors for immune activation” (Bayer Aktiengesellschaft, priority 2019, dated 2024).

Target: DGKα (Homo sapiens (Human), UniProt P23743)
Assay: Human DGKα kinase activity inhibition assay (ADP-Glo)
Format: biochemical
Conditions: recombinant full-length human DGKα, 55 μM ATP, 7 μM 1,2-dioleoyl-sn-glycerol, read-out: IC50 values of examples in in vitro human DGKa kinase activity inhibition assays
Procedure, shortened: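 Recombinant full-length human DGKα (C-terminal FLAG, from insect cells) phosphorylated 1,2-dioleoyl-sn-glycerol presented in octyl-glucopyranoside micelles. ADP formed was quantified by ADP-Glo luminescence. Compounds were added from 100-fold DMSO stocks.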

DGKα, sequence (P23743 other isoform, or with tags, fused parts or gaps): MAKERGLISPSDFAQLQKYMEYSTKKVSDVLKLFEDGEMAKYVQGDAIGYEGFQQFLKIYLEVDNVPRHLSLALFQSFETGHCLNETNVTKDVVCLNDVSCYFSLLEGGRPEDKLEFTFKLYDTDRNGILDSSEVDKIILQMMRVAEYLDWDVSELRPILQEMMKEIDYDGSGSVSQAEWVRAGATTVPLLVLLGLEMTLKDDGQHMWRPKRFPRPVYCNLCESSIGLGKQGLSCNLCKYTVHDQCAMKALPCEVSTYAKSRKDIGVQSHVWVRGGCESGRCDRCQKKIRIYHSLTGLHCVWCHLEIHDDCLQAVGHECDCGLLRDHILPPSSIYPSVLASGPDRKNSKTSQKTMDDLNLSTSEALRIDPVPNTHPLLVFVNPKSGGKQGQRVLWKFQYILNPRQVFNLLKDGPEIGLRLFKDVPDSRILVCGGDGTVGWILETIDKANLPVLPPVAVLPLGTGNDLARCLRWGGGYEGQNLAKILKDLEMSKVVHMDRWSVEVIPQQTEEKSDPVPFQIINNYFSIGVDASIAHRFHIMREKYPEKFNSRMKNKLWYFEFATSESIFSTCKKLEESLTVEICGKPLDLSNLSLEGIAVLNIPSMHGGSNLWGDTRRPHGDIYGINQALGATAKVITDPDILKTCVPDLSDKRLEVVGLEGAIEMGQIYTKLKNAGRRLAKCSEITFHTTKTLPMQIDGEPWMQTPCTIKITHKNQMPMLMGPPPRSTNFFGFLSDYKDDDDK

In the case of COc1ccccc1-c1csc(C2CCN(c3c(C#N)c(=O)n(C)c4ccccc34)CC2)n1 [Example 373, 4-{4-[4-(2-methoxyphenyl)-1,3-thiazol-2-yl]piperidin-1-yl}-1-methyl-2-oxo-1,2-dihydroquinoline-3-carbonitrile], the IC50 is reported as 9.9 nM.
Cc1ccc(-c2csc(C3CCN(c4c(C#N)c(=O)n(C)c5ccccc45)CC3)n2)cc1 [Example 374, 1-methyl-4-{4-[4-(4-methylphenyl)-1,3-thiazol-2-yl]piperidin-1-yl}-2-oxo-1,2-dihydroquinoline-3-carbonitrile] was tested, and the IC50 was 34 nM.
Cc1nc2ccc(C3CCN(c4c(C#N)c(=O)n(C)c5ccccc45)CC3)cc2o1 [Example 376, 1-methyl-4-[4-(2-methyl-1,3-benzoxazol-6-yl)piperidin-1-yl]-2-oxo-1,2-dihydroquinoline-3-carbonitrile] was tested, and the IC50 was 14 nM.
Molecule Cc1nc2ccc(C3CCN(c4c(C#N)c(=O)n(C)c5ccccc45)CC3)cc2s1 [Example 377, 1-methyl-4-[4-(2-methyl-1,3-benzothiazol-6-yl)piperidin-1-yl]-2-oxo-1,2-dihydroquinoline-3-carbonitrile] has an IC50 of 4.8 nM.
With Cn1c(=O)c(C#N)c(N2CCC(c3ccc4cc(C(F)F)cnc4c3)CC2)c2ccccc21 [Example 378, 4-{4-[3-(difluoromethyl)quinolin-7-yl]piperidin-1-yl}-1-methyl-2-oxo-1,2-dihydroquinoline-3-carbonitrile] the IC50 was 23 nM.
Work on Cc1ccc2oc(C3CCN(c4c(C#N)c(=O)n(C)c5cc(OC6CCOCC6)ccc45)CC3)nc2c1 [Example 382, 1-methyl-4-[4-(5-methyl-1,3-benzoxazol-2-yl)piperidin-1-yl]-7-[(oxan-4-yl)oxy]-2-oxo-1,2-dihydroquinoline-3-carbonitrile] yielded an IC50 of 13 nM.
In the case of COCCOc1ccc2c(N3CCC(c4nc5cc(C)ccc5o4)CC3)c(C#N)c(=O)n(C)c2c1 [Example 383, 7-(2-methoxyethoxy)-1-methyl-4-[4-(5-methyl-1,3-benzoxazol-2-yl)piperidin-1-yl]-2-oxo-1,2-dihydroquinoline-3-carbonitrile], the IC50 is reported as 5.1 nM.
With Cc1ccc2oc(C3CCN(c4c(C#N)c(=O)n(C)c5cc(OCC6CO6)ccc45)CC3)nc2c1 (centres unmarked) [Example 384, 1-methyl-4-[4-(5-methyl-1,3-benzoxazol-2-yl)piperidin-1-yl]-7-{[oxiran-2-yl]methoxy}-2-oxo-1,2-dihydroquinoline-3-carbonitrile] the IC50 was 1.8 nM.
Cc1ccc2oc(C3CCN(c4c(C#N)c(=O)n(C)c5cc(OC6COC6)ccc45)CC3)nc2c1 [Example 385, 1-methyl-4-[4-(5-methyl-1,3-benzoxazol-2-yl)piperidin-1-yl]-7-[(oxetan-3-yl)oxy]-2-oxo-1,2-dihydroquinoline-3-carbonitrile] was tested, and the IC50 was 0.9 nM.
With COc1ccc2oc(C3CCN(c4c(C#N)c(=O)n(C)c5ccccc45)CC3)nc2c1 [Example 386, 4-[4-(5-methoxy-1,3-benzoxazol-2-yl)piperidin-1-yl]-1-methyl-2-oxo-1,2-dihydroquinoline-3-carbonitrile] the IC50 was 9.4 nM.
For Cn1c(=O)c(C#N)c(N2CCC(c3nc4cc(OCC5CCCO5)ccc4o3)CC2)c2ccccc21 (centres unmarked) [Example 387, 1-methyl-2-oxo-4-(4-{5-[(oxolan-2-yl)methoxy]-1,3-benzoxazol-2-yl}piperidin-1-yl)-1,2-dihydroquinoline-3-carbonitrile], the IC50 was 8.9 nM.
Cn1c(=O)c(C#N)c(N2CCC(c3nc4ccc(C5COC5)cc4o3)CC2)c2ccccc21 [Example 388, 1-methyl-4-{4-[6-(oxetan-3-yl)-1,3-benzoxazol-2-yl]piperidin-1-yl}-2-oxo-1,2-dihydroquinoline-3-carbonitrile] was tested, and the IC50 was 33 nM.
Cn1c(=O)c(C#N)c(N2CCC(F)(c3nc4ccccc4o3)CC2)c2ccccc21 [Example 389, 4-[4-(1,3-benzoxazol-2-yl)-4-fluoropiperidin-1-yl]-1-methyl-2-oxo-1,2-dihydroquinoline-3-carbonitrile] was tested, and the IC50 was 3.1 nM.
COC1(c2nc3ccccc3o2)CCN(c2c(C#N)c(=O)n(C)c3ccccc23)CC1 [Example 390, 4-[4-(1,3-benzoxazol-2-yl)-4-methoxypiperidin-1-yl]-1-methyl-2-oxo-1,2-dihydroquinoline-3-carbonitrile] was tested, and the IC50 was 3.5 nM.
For COCc1ccc2oc(C3(C)CCN(c4c(C#N)c(=O)n(C)c5ccccc45)CC3)nc2c1 [Example 391, 4-{4-[5-(methoxymethyl)-1,3-benzoxazol-2-yl]-4-methylpiperidin-1-yl}-1-methyl-2-oxo-1,2-dihydroquinoline-3-carbonitrile], the IC50 was 8.3 nM.
In the case of COCc1ccc2nc(C3(C)CCN(c4c(C#N)c(=O)n(C)c5ccccc45)CC3)oc2c1 [Example 392, 4-{4-[6-(methoxymethyl)-1,3-benzoxazol-2-yl]-4-methylpiperidin-1-yl}-1-methyl-2-oxo-1,2-dihydroquinoline-3-carbonitrile], the IC50 is reported as 6.7 nM.
COc1ccc2oc(C3(F)CCN(c4c(C#N)c(=O)n(C)c5ccccc45)CC3)nc2c1 [Example 393, 4-[4-fluoro-4-(5-methoxy-1,3-benzoxazol-2-yl)piperidin-1-yl]-1-methyl-2-oxo-1,2-dihydroquinoline-3-carbonitrile] was tested, and the IC50 was 106 nM.
Work on Cn1c(=O)c(C#N)c(N2CCC(c3nc4ccc(C5CC5)cc4o3)CC2)c2ccccc21 [Example 395, 4-[4-(6-cyclopropyl-1,3-benzoxazol-2-yl)piperidin-1-yl]-1-methyl-2-oxo-1,2-dihydroquinoline-3-carbonitrile] yielded an IC50 of 2.4 nM.
With Cc1ccc2oc(C3CCN(c4c(C#N)c(=O)n(C)c5ccc(Br)cc45)CC3)nc2c1 [Example 396, 6-bromo-1-methyl-4-[4-(5-methyl-1,3-benzoxazol-2-yl)piperidin-1-yl]-2-oxo-1,2-dihydroquinoline-3-carbonitrile] the IC50 was 0.9 nM.
Molecule Cc1ccc2oc(C3CCN(c4c(C#N)c(=O)n(C)c5c(Br)cccc45)CC3)nc2c1 [Example 397, 8-bromo-1-methyl-4-[4-(5-methyl-1,3-benzoxazol-2-yl)piperidin-1-yl]-2-oxo-1,2-dihydroquinoline-3-carbonitrile] has an IC50 of 399 nM.
Molecule Cc1ccc2oc(C3CCN(c4c(C#N)c(=O)n(C)c5cc(N(C)C6COC6)ccc45)CC3)nc2c1 [Example 398, 1-methyl-4-[4-(5-methyl-1,3-benzoxazol-2-yl)piperidin-1-yl]-7-[methyl(oxetan-3-yl)amino]-2-oxo-1,2-dihydroquinoline-3-carbonitrile] has an IC50 of 1.7 nM.
Cc1ccc2oc(C3CCN(c4c(C#N)c(=O)n(C)c5cc(N(C)CCO)ccc45)CC3)nc2c1 [Example 399, 7-[(2-hydroxyethyl)(methyl)amino]-1-methyl-4-[4-(5-methyl-1,3-benzoxazol-2-yl)piperidin-1-yl]-2-oxo-1,2-dihydroquinoline-3-carbonitrile] was tested, and the IC50 was 0.5 nM.
Cc1ccc2oc(C3CCN(c4c(C#N)c(=O)n(C)c5cc(N(C)CC#N)ccc45)CC3)nc2c1 [Example 401, 7-[(cyanomethyl)(methyl)amino]-1-methyl-4-[4-(5-methyl-1,3-benzoxazol-2-yl)piperidin-1-yl]-2-oxo-1,2-dihydroquinoline-3-carbonitrile] was tested, and the IC50 was 0.8 nM.
COc1ccc2c(c1)c(N1CCC(c3nc4cc(C)ccc4o3)CC1)c(C#N)c(=O)n2C [Example 402, 6-methoxy-1-methyl-4-[4-(5-methyl-1,3-benzoxazol-2-yl)piperidin-1-yl]-2-oxo-1,2-dihydroquinoline-3-carbonitrile] gave an IC50 of 16 nM.
Cc1ccc2oc(C3CCN(c4c(C#N)c(=O)n(C)c5ccc(C#N)cc45)CC3)nc2c1 [Example 403, 1-methyl-4-[4-(5-methyl-1,3-benzoxazol-2-yl)piperidin-1-yl]-2-oxo-1,2-dihydroquinoline-3,6-dicarbonitrile] was tested, and the IC50 was 2 nM.
For Cc1ccc2oc(C3CCN(c4c(C#N)c(=O)n(C)c5ccc(C(N)=O)cc45)CC3)nc2c1 [Example 404, 3-cyano-1-methyl-4-[4-(5-methyl-1,3-benzoxazol-2-yl)piperidin-1-yl]-2-oxo-1,2-dihydroquinoline-6-carboxamide], the IC50 was 5.3 nM.
CCOc1ccc2c(c1)c(N1CCC(c3nc4cc(C)ccc4o3)CC1)c(C#N)c(=O)n2C [Example 405, 6-ethoxy-1-methyl-4-[4-(5-methyl-1,3-benzoxazol-2-yl)piperidin-1-yl]-2-oxo-1,2-dihydroquinoline-3-carbonitrile] showed an IC50 of 41 nM.
For Cc1ccc2oc(C3CCN(c4c(C#N)c(=O)n(C)c5ccc(OCC(C)(F)F)cc45)CC3)nc2c1 [Example 406, 6-(2,2-difluoropropoxy)-1-methyl-4-[4-(5-methyl-1,3-benzoxazol-2-yl)piperidin-1-yl]-2-oxo-1,2-dihydroquinoline-3-carbonitrile], the IC50 was 36 nM.
Work on Cc1ccc2oc(C3CCN(c4c(C#N)c(=O)n(C)c5ccc(OCC(F)F)cc45)CC3)nc2c1 [Example 407, 6-(2,2-difluoroethoxy)-1-methyl-4-[4-(5-methyl-1,3-benzoxazol-2-yl)piperidin-1-yl]-2-oxo-1,2-dihydroquinoline-3-carbonitrile] yielded an IC50 of 48 nM.
Cc1ccc2oc(C3CCN(c4c(C#N)c(=O)n(C)c5ccc(OCC6CC6)cc45)CC3)nc2c1 [Example 408, 6-(cyclopropylmethoxy)-1-methyl-4-[4-(5-methyl-1,3-benzoxazol-2-yl)piperidin-1-yl]-2-oxo-1,2-dihydroquinoline-3-carbonitrile] showed an IC50 of 15 nM.
Work on Cc1ccc2oc(C3CCN(c4c(C#N)c(=O)n(C)c5ccc(C6CCC6)cc45)CC3)nc2c1 [Example 409, 6-cyclobutyl-1-methyl-4-[4-(5-methyl-1,3-benzoxazol-2-yl)piperidin-1-yl]-2-oxo-1,2-dihydroquinoline-3-carbonitrile] yielded an IC50 of 8.4 nM.
With Cc1ccc2oc(C3CCN(c4c(C#N)c(=O)n(C)c5ccc(C6CCC6(C)C)cc45)CC3)nc2c1 (centres unmarked) [Example 410, 6-[2,2-dimethylcyclobutyl]-1-methyl-4-[4-(5-methyl-1,3-benzoxazol-2-yl)piperidin-1-yl]-2-oxo-1,2-dihydroquinoline-3-carbonitrile] the IC50 was 51 nM.
